In patent US11542266B1, “Substituted piperidines as BTK inhibitors” (HAISCO PHARMACEUTICALS PTE. LTD., priority 2019, dated 2023):
Structures can show the parent of a compound that is named as a salt.

Test system: not listed separately
Test: Pharmacokinetic experiment in rats (i.g. vehicle 0.5% MC)
Format: in vivo
Settings: Sprague-Dawley (SD), rat, po; male SD rats, plasma, i.g. 20 mg/kg, vehicle 0.5% MC; read-out: AUC0-t
Procedure: Objective: In this experiment, a single dose of each test compound was administered to SD rats intravenously and intragastrically, the concentrations of the test compound in plasma of rats were measured, and the pharmacokinetic characteristics and bioavailability of the test compound in rats were evaluated.
Experimental animals: Male SD rats, 200-250 g, 6-8 weeks old, 6 rats/test compound. The experimental animals were purchased from CHENGDU DOSSY EXPERIMENTAL ANIMALS CO., LTD.
Experimental method: On the day of the experiment, 6 SD rats were randomly grouped according to their body weight. The animals were fasted with water available for 12 to 14 hours one day before the administration of a test compound, and were fed 4 hours after the administration.
Sampling: Before and after the administration, 0.1 ml of blood was taken from the orbit of the rats under isoflurane anesthesia, and placed in an EDTAK2 centrifuge tube. Centrifugation was carried out at 5000 rpm at 4° C. for 10 min and the plasma was collected.
Time points for plasma collection in G1 group: 0, 5 m, 15 m, 30 m, 1 h, 2 h, 4 h, 6 h, 8 h, and 24 h.
Time points for plasma collection in G2 group: 0, 15 m, 30 m, 1 h, 2 h, 4 h, 6 h, 8 h, and 24 h.
Before analysis and detection, all samples were stored at −80° C. The samples were analyzed quantitatively by LC-MS/MS.
For `Nc1ncnc2c1c(-c1ccc(Oc3ccccc3)cc1)nn2C1CCN(C2CC3(CCN(c4ccc5c(c4)C(=O)N(C4CCC(=O)NC4=O)C5=O)CC3)C2)CC1` (stereo not drawn) [Compound 1, 5-[2-[4-[4-amino-3-(4-phenoxyphenyl)pyrazolo[3,4-d]pyrimidin-1-yl]-1-piperidyl]-7-azaspiro[3.5]nonan-7-yl]-2-(2,6-dioxo-3-piperidyl)isoindoline-1,3-dione], the AUC(0-t) was 479 ± 197 ng·h/mL.

Test system: SU-DHL-4 cells
Test: Inhibition of cell proliferation, SU-DHL-4 cells (Cell Viability Assay, 72 h)
Format: cell-based, human
Settings: Homo sapiens
Procedure: (§1) SU-DHL-4, Mino, and SU-DHL-6 cells, in the culture medium of RPMI1640+10% FBS, were cultured in an incubator at 37° C. under 5% CO2. Cells were plated in a 96-well plate. Specifically, SU-DHL-4 cells were at 20000/well, Mino and SU-DHL-6 cells were at 5000/well, with 90 μL/well. 10 μL of the compounds at different concentrations were added to each well. There were 3 replicate wells for each concentration, and the last column, added with DMSO, was used as a vehicle control group. The cultures were continued for 72 hours at 37° C. under 5% CO2. After 72 hours, 100 μL of detection reagent (Cell Viability Assay, Promega, G7573) was added to each well, and the cultures were uniformly mixed for 2 minutes, and incubated at room temperature for 10 minutes. The fluorescence signal value was measured with a microplate reader (PHERAstar FSX). The IC50 value of the compound on cell proliferation inhibition was calculated using Origin 9.2 software, and the inhibition rate at the highest concentration of the compound (Max inhi. %) was calculated according to formula (1). Max inhi. %=(1-T72 administration/T72 vehicle)×100 Formula (1).
With `Nc1ncnc2c1c(-c1ccc(Oc3ccccc3)cc1)nn2C1CCN(C2CN(C3CCN(C4CCN(C5CN(c6ccc7c(c6)C(=O)N(C6CCC(=O)NC6=O)C7=O)C5)CC4)CC3)C2)CC1` (stereo not drawn) [Compound 13, 5-[3-[4-[4-[3-[4-[4-amino-3-(4-phenoxyphenyl)pyrazolo[3,4-d]pyrimidin-1-yl]-1-piperidyl]azetidin-1-yl]-1-piperidyl]-1-piperidyl]azetidin-1-yl]-2-(2,6-dioxo-3-piperidyl)isoindoline-1,3-dione] the IC50 was 70 nM.

Same assay, conditions: inhibition rate at the highest concentration of the compound
With `Nc1ncnc2c1c(-c1ccc(Oc3ccccc3)cc1)nn2[C@@H]1CCCN(C2CCC(N3CC(Oc4ccc5c(c4)C(=O)N(C4CCC(=O)NC4=O)C5=O)C3)CC2)C1` (single isomer, unassigned) [Compound 34-a] the “SU-DHL-4 Max inhi. %” value was 94.4%. With `Nc1ncnc2c1c(-c1ccc(Oc3ccccc3)cc1)nn2[C@@H]1CCCN(C2CCC(N3CC(Oc4ccc5c(c4)C(=O)N(C4CCC(=O)NC4=O)C5=O)C3)CC2)C1` (single isomer, unassigned) [Compound 34-b] the “SU-DHL-4 Max inhi. %” value was 99.2%. In the case of `Nc1ncnc2c1c(-c1ccc(Oc3ccccc3)cc1)nn2C1CCN(C2CCC(N3CC(Oc4ccc5c(c4)C(=O)N(C4CCC(=O)NC4=O)C5=O)C3)CC2)CC1` (stereo not drawn) [Compound 36-a, 5-[1-[4-[4-[4-amino-3-(4-phenoxyphenyl)pyrazolo[3,4-d]pyrimidin-1-yl]-1-piperidyl]cyclohexyl]azetidin-3-yl]oxy-2-(2,6-dioxo-3-piperidyl)isoindoline-1,3-dione], the “SU-DHL-4 Max inhi. %” value is reported as 99.6%.

Same assay, conditions: inhibition rate at the highest concentration of the compound, trifluoroacetate
For `Nc1ncnc2c1c(-c1ccc(Oc3ccccc3)cc1)nn2C1CCN(C2CCC(N3CC(Oc4ccc5c(c4)C(=O)N(C4CCC(=O)NC4=O)C5=O)C3)CC2)CC1` (stereo not drawn) [Compound 36-b, 5-[1-[4-[4-[4-amino-3-(4-phenoxyphenyl)pyrazolo[3,4-d]pyrimidin-1-yl]-1-piperidyl]cyclohexyl]azetidin-3-yl]oxy-2-(2,6-dioxo-3-piperidyl)isoindoline-1,3-dione trifluoroacetate], the “SU-DHL-4 Max inhi. %” value was 99.8%.

Test system: Mino cells
Test: Inhibition of cell proliferation, Mino cells (Cell Viability Assay, 72 h)
Format: cell-based, human
Settings: Homo sapiens
Procedure: as §1
With `Nc1ncnc2c1c(-c1ccc(Oc3ccccc3)cc1)nn2C1CCN(C2CN(C3CCN(C4CCN(C5CN(c6ccc7c(c6)C(=O)N(C6CCC(=O)NC6=O)C7=O)C5)CC4)CC3)C2)CC1` (stereo not drawn) [Compound 13, 5-[3-[4-[4-[3-[4-[4-amino-3-(4-phenoxyphenyl)pyrazolo[3,4-d]pyrimidin-1-yl]-1-piperidyl]azetidin-1-yl]-1-piperidyl]-1-piperidyl]azetidin-1-yl]-2-(2,6-dioxo-3-piperidyl)isoindoline-1,3-dione] the IC50 was 677 nM. For `Nc1ncnc2c1c(-c1ccc(Oc3ccccc3)cc1)nn2C1CCN(C2CN(C3CCC4(CC3)CN(c3ccc5c(c3)C(=O)N(C3CCC(=O)NC3=O)C5=O)C4)C2)CC1` (stereo not drawn) [Compound 54, 5-(7-(3-(4-(4-amino-3-(4-phenoxyphenyl)-1H-pyrazolo[3,4-d]pyrimidin-1-yl)piperidin-1-yl)azetidin-1-yl)-2-azaspiro[3.5]nonan-2-yl)-2-(2,6-dioxopiperidin-3-yl)isoindoline-1,3-dione], the IC50 was 200 nM. In the case of `Nc1ncnc2c1c(-c1ccc(Oc3ccccc3)cc1)nn2C1CCN(C2C[C@@H]3CN(C4CN(c5ccc6c(c5)C(=O)N(C5CCC(=O)NC5=O)C6=O)C4)C[C@@H]3C2)CC1` (stereo partly drawn) [Compound 59, 5-(3-((3aR,6aS)-5-(4-(4-amino-3-(4-phenoxyphenyl)-1H-pyrazolo[3,4-d]pyrimidin-1-yl)piperidin-1-yl)hexahydrocyclopenta[c]pyrrol-2(1H)-yl)azetidin-1-yl)-2-(2,6-dioxopiperidin-3-yl)isoindoline-1,3-dione], the IC50 is reported as 501 nM. `Nc1ncnc2c1c(-c1ccc(Oc3ccccc3)cc1)nn2C1CCN(C2CN(C3CN(C4CN(c5ccc6c(c5)C(=O)N(C5CCC(=O)NC5=O)C6=O)C4)C3)C2)CC1` (stereo not drawn) [Compound 60, 5-(3-(4-(4-amino-3-(4-phenoxyphenyl)-1H-pyrazolo[3,4-d]pyrimidin-1-yl)piperidin-1-yl)-[1,3′:1′,3″-terazetidin]-1H-yl)-2-(2,6-dioxopiperidin-3-yl)isoindoline-1,3-dione] gave an IC50 of 165 nM. `Nc1ncnc2c1c(-c1ccc(Oc3ccccc3)cc1)nn2C1CCN(C2CN(C3C[C@@H]4CN(c5ccc6c(c5)C(=O)N(C5CCC(=O)NC5=O)C6=O)C[C@@H]4C3)C2)CC1` (stereo partly drawn) [Compound 61, 5-((3aR,6aS)-5-(3-(4-(4-amino-3-(4-phenoxyphenyl)-1H-pyrazolo[3,4-d]pyrimidin-1-yl)piperidin-1-yl)azetidin-1-yl)hexahydrocyclopenta[c]pyrrol-2(1H)-yl)-2-(2,6-dioxopiperidin-3-yl)isoindoline-1,3-dione] gave an IC50 of 100 nM. For `Nc1ncnc2c1c(-c1ccc(Oc3ccccc3)cc1)nn2C1CCN(C2CN(C3CC4(CCN(c5ccc6c(c5)C(=O)N(C5CCC(=O)NC5=O)C6=O)CC4)C3)C2)CC1` (stereo not drawn) [Compound 62, 5-(2-(3-(4-(4-amino-3-(4-phenoxyphenyl)-1H-pyrazolo[3,4-d]pyrimidin-1-yl)piperidin-1-yl)azetidin-1-yl)-7-azaspiro[3.5]nonan-7-yl)-2-(2,6-dioxopiperidin-3-yl)isoindoline-1,3-dione], the IC50 was 38 nM.

Same assay, conditions: inhibition rate at the highest concentration of the compound
In the case of `Nc1ncnc2c1c(-c1ccc(Oc3ccccc3)cc1)nn2C1CCN(C2C[C@@H]3CN(C4CC5(CCN(c6ccc7c(c6)C(=O)N(C6CCC(=O)NC6=O)C7=O)CC5)C4)C[C@@H]3C2)CC1` (stereo partly drawn) [Compound 52, 5-(2-((3aR,6aS)-5-(4-(4-amino-3-(4-phenoxyphenyl)-1H-pyrazolo[3,4-d]pyrimidin-1-yl)piperidin-1-yl)hexahydrocyclopenta[c]pyrrol-2(1H)-yl)-7-azaspiro[3.5]nonan-7-yl)-2-(2,6-dioxopiperidin-3-yl)isoindoline-1,3-dione], the “Mino Max inhi. %” value is reported as 99.7%. With `Nc1ncnc2c1c(-c1ccc(Oc3ccccc3)cc1)nn2C1CCN(C2C[C@@H]3CN(C4C[C@@H]5CN(c6ccc7c(c6)C(=O)N(C6CCC(=O)NC6=O)C7=O)C[C@@H]5C4)C[C@@H]3C2)CC1` (stereo partly drawn) [Compound 53, 5-((3aR,3′aR,6aS,6′aS)-5-(4-(4-amino-3-(4-phenoxyphenyl)-1H-pyrazolo[3,4-d]pyrimidin-1-yl)piperidin-1-yl)dodecahydro-1H-[2,5′-bi(cyclopenta[c]pyrrol)]-2′(1′H)-yl)-2-(2,6-dioxopiperidin-3-yl)isoindoline-1,3-dione trifluoroacetate] the “Mino Max inhi. %” value was 99.6%. For `Nc1ncnc2c1c(-c1ccc(Oc3ccccc3)cc1)nn2C1CCN(C2CCC3(CC2)CN(C2CCC4(CC2)CN(c2ccc5c(c2)C(=O)N(C2CCC(=O)NC2=O)C5=O)C4)C3)CC1` (stereo not drawn) [Compound 55, 5-(7-(4-(4-amino-3-(4-phenoxyphenyl)-1H-pyrazolo[3,4-d]pyrimidin-1-yl)piperidin-1-yl)-2,2′-diaza[2,7′-bispiro[3.5]nonan]-2′-yl)-2-(2,6-dioxopiperidin-3-yl)isoindoline-1,3-dione], the “Mino Max inhi. %” value was 99.9%. In the case of `Nc1ncnc2c1c(-c1ccc(Oc3ccccc3)cc1)nn2C1CCN(C2CCC3(CC2)CN(C2CN(c4ccc5c(c4)C(=O)N(C4CCC(=O)NC4=O)C5=O)C2)C3)CC1` (stereo not drawn) [Compound 56, 5-(3-(7-(4-(4-amino-3-(4-phenoxyphenyl)-1H-pyrazolo[3,4-d]pyrimidin-1-yl)piperidin-1-yl)-2-azaspiro[3.5]nonan-2-yl)azetidin-1-yl)-2-(2,6-dioxopiperidin-3-yl)isoindoline-1,3-dione], the “Mino Max inhi. %” value is reported as 99.9%. For `Nc1ncnc2c1c(-c1ccc(Oc3ccccc3)cc1)nn2C1CCN(C2CC3CCC(C2)N3C2CN(c3ccc4c(c3)C(=O)N(C3CCC(=O)NC3=O)C4=O)C2)CC1` (stereo not drawn) [Compound 57, 5-(3-(3-(4-(4-amino-3-(4-phenoxyphenyl)-1H-pyrazolo[3,4-d]pyrimidin-1-yl)piperidin-1-yl)-8-azabicyclo[3.2.1]octan-8-yl)azetidin-1-yl)-2-(2,6-dioxopiperidin-3-yl)isoindoline-1,3-dione], the “Mino Max inhi. %” value was 99.2%. For `Nc1ncnc2c1c(-c1ccc(Oc3ccccc3)cc1)nn2C1CCN(C2CC3CCC(C2)N3c2ccc3c(c2)C(=O)N(C2CCC(=O)NC2=O)C3=O)CC1` (stereo not drawn) [Compound 58, 5-(3-(4-(4-amino-3-(4-phenoxyphenyl)-1H-pyrazolo[3,4-d]pyrimidin-1-yl)piperidin-1-yl)-8-azabicyclo[3.2.1]octan-8-yl)-2-(2,6-dioxopiperidin-3-yl)isoindoline-1,3-dione], the “Mino Max inhi. %” value was 95.3%.
